Test results taken from patent US12201635B2, “Multi-target kinase inhibitor, pharmaceutical composition, and preparation method for multi-target kinase inhibitor and use thereof” (GUANGZHOU LIUSHUN BIOTECHNOLOGY CO., LTD., priority 2019, dated 2025).

How the values were obtained:
PDGFRA = PDGFRA (Homo sapiens, UniProt P16234); test: Z'-LYTE kinase inhibition assay, PDGFRA; assay type: biochemical
Experimental: (§1) 1. The compounds to be detected were accurately weighed and added into DMSO to form stock solutions, which were then diluted to desired concentrations with a buffer to give solutions of the compounds to be detected.
(§2) 2. An RET or VEGFR3 or PDGFRA kinase solution, corresponding substrate solutions of Z′-LYTE, a buffer or a compound to be detected and ATP were added into a 384 reaction vessel, and reacted at room temperature for 1 h.
(§3) 3. To each well was added a fluorescence enhancer, followed by incubation at room temperature for 1 h.
(§4) 4. Data were read separately using a fluorescence analyzer.
(§5) 1. The relative inhibitory rate for each well was calculated according to a formula.
(§6) 2. Active samples were diluted and tested for relative inhibitory rates, and the inhibitory rates IC50 were calculated by plotting in the software Xlfit.

VEGFR3 = VEGFR3 (Homo sapiens, UniProt P35916); test: Z'-LYTE kinase inhibition assay, VEGFR3; assay type: biochemical
Experimental: as §1, §2, §3, §4, §5, §6

RET = RET (Homo sapiens, UniProt P07949); test: Z'-LYTE kinase inhibition assay, RET; assay type: biochemical
Experimental: as §1, §2, §3, §4, §5, §6

[1] = system: KYSE 410 esophageal cancer; test: In vivo anti-tumor activity, nude mouse tumor model of KYSE 410 esophageal cancer; settings: KYSE 410 esophageal cancer mice
Description: (§7) In this example, the in vivo anti-tumor activity (liver cancer/esophageal cancer) of the multi-target kinase inhibitor [Compound (I-1)] was investigated according to the requirements in Guidelines for Pharmacodynamics of Anti-tumor Drugs. The experimental procedures and results are as follows:
(§8) Tumor models of nude mice were established using […] heptoma cells and KYSE 410 esophageal cancer cells that meet modeling conditions. The modeled mice were divided into 5 groups: a model group, a Compound (I-1) 5 mg/kg group, a Compound (I-1) 10 mg/kg group, a Compound (I-1) 20 mg/kg group, and a positive control group (sorafenib or cabozantinib). Administration was performed from the day of grouping that was counted as day 1 and for 21 consecutive days, and the 21st day was counted as day21. Tumor volumes were measured twice a week during the period of administration for statistical test.

SMMC-7721 hepatoma = test: In vivo anti-tumor activity, nude mouse tumor model of SMMC-7721 liver cancer; settings: SMMC-7721 liver cancer mice
Description: as §7, §8

[2] = 5, 10 and 20 mg/kg, 21 consecutive days, day21 ANOVA P<0.0001
[3] = 10 and 20 mg/kg, positive control sorafenib or cabozantinib

VEGFR3, sequence (P35916 25-1363): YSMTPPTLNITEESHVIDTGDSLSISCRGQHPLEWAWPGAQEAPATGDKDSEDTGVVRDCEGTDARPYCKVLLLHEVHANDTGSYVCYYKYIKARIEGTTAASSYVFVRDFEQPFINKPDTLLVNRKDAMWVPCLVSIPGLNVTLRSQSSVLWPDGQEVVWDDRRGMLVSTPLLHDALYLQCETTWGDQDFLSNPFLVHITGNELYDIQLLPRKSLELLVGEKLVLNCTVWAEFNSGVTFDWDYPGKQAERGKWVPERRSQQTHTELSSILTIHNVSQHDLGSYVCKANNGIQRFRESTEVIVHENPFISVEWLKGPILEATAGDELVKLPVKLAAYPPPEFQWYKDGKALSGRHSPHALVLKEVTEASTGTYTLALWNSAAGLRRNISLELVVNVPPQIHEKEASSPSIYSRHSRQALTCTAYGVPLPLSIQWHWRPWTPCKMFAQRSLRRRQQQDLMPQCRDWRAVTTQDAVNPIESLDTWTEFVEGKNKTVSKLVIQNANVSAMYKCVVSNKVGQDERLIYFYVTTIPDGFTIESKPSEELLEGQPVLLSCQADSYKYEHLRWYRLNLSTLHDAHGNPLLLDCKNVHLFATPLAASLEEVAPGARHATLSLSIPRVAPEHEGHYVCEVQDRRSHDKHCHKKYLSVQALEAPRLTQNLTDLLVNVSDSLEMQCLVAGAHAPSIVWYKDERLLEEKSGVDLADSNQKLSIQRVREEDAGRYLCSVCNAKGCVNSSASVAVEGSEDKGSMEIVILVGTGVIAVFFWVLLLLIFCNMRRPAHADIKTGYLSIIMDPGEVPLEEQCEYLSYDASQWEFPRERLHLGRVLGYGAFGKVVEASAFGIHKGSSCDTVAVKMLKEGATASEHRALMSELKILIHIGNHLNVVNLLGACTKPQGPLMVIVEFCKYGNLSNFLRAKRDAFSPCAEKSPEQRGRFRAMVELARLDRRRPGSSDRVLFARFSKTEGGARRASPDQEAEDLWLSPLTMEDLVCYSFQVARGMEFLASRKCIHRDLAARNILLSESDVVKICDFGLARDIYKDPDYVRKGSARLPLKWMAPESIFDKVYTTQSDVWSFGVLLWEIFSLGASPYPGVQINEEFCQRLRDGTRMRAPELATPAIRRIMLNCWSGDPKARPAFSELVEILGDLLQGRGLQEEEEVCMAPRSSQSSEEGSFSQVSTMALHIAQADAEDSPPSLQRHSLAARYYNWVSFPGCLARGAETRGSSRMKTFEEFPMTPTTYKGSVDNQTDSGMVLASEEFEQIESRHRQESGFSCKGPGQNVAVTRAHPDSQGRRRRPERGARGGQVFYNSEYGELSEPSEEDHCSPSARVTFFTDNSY
RET, sequence (P07949 29-1114): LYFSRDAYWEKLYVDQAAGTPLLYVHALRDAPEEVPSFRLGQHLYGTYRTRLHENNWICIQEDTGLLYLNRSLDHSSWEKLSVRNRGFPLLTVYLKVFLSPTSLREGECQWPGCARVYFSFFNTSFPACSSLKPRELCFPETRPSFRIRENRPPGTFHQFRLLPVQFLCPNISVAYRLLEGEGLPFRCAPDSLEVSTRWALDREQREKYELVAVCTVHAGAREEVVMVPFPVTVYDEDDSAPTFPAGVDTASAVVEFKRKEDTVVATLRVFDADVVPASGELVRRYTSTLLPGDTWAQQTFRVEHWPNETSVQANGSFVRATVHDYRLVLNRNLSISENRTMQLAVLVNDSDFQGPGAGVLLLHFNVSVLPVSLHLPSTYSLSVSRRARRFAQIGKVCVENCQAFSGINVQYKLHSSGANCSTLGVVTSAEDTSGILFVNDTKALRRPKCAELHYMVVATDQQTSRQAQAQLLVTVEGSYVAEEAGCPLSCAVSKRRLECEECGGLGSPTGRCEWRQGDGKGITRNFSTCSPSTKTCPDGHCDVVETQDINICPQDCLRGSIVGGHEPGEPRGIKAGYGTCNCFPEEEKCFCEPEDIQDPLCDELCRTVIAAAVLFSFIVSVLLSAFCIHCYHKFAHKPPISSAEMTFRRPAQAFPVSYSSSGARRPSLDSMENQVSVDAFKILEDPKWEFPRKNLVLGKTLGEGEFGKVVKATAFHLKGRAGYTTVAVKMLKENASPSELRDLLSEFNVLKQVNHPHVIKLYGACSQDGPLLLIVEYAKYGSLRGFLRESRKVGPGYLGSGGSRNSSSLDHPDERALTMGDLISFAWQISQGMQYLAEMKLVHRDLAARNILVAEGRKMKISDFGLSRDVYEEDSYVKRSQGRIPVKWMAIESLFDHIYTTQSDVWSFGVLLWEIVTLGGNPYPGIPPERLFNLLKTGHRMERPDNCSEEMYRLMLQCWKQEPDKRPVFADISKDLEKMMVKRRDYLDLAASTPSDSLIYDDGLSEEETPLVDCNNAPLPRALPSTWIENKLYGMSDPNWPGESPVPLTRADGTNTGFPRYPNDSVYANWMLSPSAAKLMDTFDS
PDGFRA, sequence (P16234 24-1089): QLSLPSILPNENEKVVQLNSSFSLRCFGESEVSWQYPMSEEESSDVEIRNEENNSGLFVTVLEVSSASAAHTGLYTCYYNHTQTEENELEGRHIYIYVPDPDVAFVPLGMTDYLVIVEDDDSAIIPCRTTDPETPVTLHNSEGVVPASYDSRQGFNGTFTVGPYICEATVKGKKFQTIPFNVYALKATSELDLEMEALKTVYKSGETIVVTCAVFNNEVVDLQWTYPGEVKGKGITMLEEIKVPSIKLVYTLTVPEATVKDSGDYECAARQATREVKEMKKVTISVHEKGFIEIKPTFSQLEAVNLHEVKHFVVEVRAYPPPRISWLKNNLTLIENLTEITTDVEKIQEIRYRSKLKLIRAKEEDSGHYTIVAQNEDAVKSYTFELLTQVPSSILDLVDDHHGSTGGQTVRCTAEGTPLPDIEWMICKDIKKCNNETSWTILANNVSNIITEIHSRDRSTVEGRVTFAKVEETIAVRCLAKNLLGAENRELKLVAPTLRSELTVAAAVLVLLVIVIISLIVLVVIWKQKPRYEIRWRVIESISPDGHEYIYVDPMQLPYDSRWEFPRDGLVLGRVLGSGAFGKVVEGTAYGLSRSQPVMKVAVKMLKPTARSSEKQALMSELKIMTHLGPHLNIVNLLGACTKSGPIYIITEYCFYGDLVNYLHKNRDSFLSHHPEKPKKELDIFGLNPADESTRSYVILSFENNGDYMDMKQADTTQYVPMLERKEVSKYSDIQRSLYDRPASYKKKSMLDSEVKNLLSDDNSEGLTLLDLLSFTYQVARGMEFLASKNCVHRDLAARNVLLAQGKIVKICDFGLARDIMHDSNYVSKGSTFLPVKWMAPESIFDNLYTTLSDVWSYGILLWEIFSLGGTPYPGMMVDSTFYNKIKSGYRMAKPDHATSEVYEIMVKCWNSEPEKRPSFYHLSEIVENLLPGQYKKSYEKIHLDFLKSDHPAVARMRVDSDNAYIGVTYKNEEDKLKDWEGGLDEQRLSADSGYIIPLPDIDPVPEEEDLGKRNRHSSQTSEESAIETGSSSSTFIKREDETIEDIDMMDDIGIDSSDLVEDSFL

Row | IC50 (PDGFRA) | IC50 (VEGFR3) | IC50 (RET) | Compound | Tumor volume compared with the model group [1, 2] | Tumor volume compared with the positive control group [1, 3] | Tumor volume compared with the model group (SMMC-7721 hepatoma; [2]) | Tumor volume compared with the positive control group (SMMC-7721 hepatoma; [3])
1 | 308 nM | 16 nM | 37 nM | COc1cc2ncnc(Oc3ccc(NC(=O)NC4CCC4)cc3)c2cc1OC [Compound I-2] |  |  |  | 
2 | 124 nM | 213 nM | 102 nM | COc1cc2ncnc(Oc3ccc(NC(=O)N4CCCC4)cc3)c2cc1OC [Compound I-5] |  |  |  | 
3 | 52 nM | 65 nM | 26 nM | C=CNC(=O)Nc1ccc(Oc2ncnc3cc(OC)c(OC)cc23)cc1 [Compound I-4] |  |  |  | 
4 | 60 nM | 30 nM | 12 nM | COc1cc2ncnc(Oc3ccc(NC(=O)NC4CC4)cc3)c2cc1OC [Compound I-1] | lower tumor volumes | lower tumor volumes | lower tumor volumes | lower tumor volumes
5 | 632 nM | 328 nM | 251 nM | COc1cc2ncnc(Oc3ccc(NC(=O)N4CCCCC4)cc3)c2cc1OC [Compound I-6] |  |  |  | 
6 | 62 nM | 9 nM | 85 nM | COc1cc2ncnc(Oc3ccc(NC(=O)NC4CCCC4)cc3)c2cc1OC [Compound I-3] |  |  |  | 
